US10376529B2, “Combination of pentacyclic triterpenes and hydroxytyrosol and derivatives thereof” (NATAC BIOTECH, S.L, priority 2013, dated 2019)

Experiments:
NSC34 motor neurons = assay: NSC34 motor neuron viability (MTT) after hydrogen peroxide insult; format: cell-based, murine; settings: H2O2 0.2 mM 30 min, MTT after 24 h
Text: NSC34 murine spinal cord motor neuron derived cell line was used for this assay. This neuronal cell line is a classical in vitro platform validated for the study of neuroprotective agents. They share a lot of common physiological features with spinal cord neurons such as glutamate sensibility, acetyl choline secretion upon stimulation, functional neurites or characteristic neuronal sensibility and protection mechanisms against neurotoxic agents. Motoneuronal NSC-34 cells (Cedarlane, Burlington, Ontario, Canada) were cultured at 37° C. and 5% CO2 in Dulbecco's modified Eagle's medium (DMEM) supplemented with 10% fetal bovine serum (FBS), 1% penicillin/streptomycin and 0.04 mM L-glutamine. All reagents were purchased at Gibco-Invitrogen. NSC34 cells were seeded at low density (30000 cel/mL) in appropriate tissue culture vessels, 24-well plates for toxicity assays. In the experiments, cells were pretreated for 2 h with the compound of formula (I) (oleanolic acid, 4.44 mg/L), the compound of formula (II) (hydroxytyrosol, 1.54 mg/L) or the combination of the compound of formula (I) (oleanolic acid, 4.44 mg/L) and the compound of formula (II) (hydroxytyrosol, 1.54 mg/L). Stock solutions of the compounds (50 mM) were prepared in dimethylsulfoxide (DMSO, Sigma-Aldrich). Solutions for cell treatment were prepared by diluting stock solutions in culture media immediately before being added to the cells (DMSO concentration: 0.5%). Controls contained the same final concentration of vehicle as the compound-containing wells. Hydrogen peroxide (H2O2) stock was a 30% solution in water (Aldrich). The medium was removed and replaced with a suitable volume of fresh DMEM plus FBS (Gibco). Small hydrogen peroxide aliquots were then added to a final concentration of 0.2 mM. Cells were then exposed for 30 min at 37° C. After this time the medium was removed and replaced with fresh one. The compounds were maintained in the medium for 24 hours. After this 24 hours cell viability was tested using the 3-[4,5-dimethylthiazol-2-yl]-2,5-diphenyltetrazolium bromide (MTT, Sigma) assay. After color development (15 min at 37° C.), samples were measured at 570-620 nm on a microplate reader (BioTek ELX800, BioTek Instruments Inc., Vermont, USA). Mean values of at least three independent wells from three experiments were calculated, and cell survival expressed as percent […] signal compared with untreated control conditions.

BV2 microglia = assay: Nitric oxide production (nitrite, Griess reaction) by LPS plus IFNγ activated BV2 microglia; format: cell-based, mouse; settings: LPS 100 ng/mL + IFNγ 50 pg/mL, 24 h
Method: BV2 cells are a murine microglial-derived cell line widely used as in vitro model for the study of compounds that could modulate microglial mediated neuronal damage. When stimulated, BV2 microglia releases neurotoxic and neuroinflammatory factors such as tumor necrosis factor alpha (TNFα), interleukin 6 (IL6) or nitric oxide (NO).
The mouse microglial cell line BV-2 was purchased at the Istituto Nazionale per la Ricerca sul Cancro (1ST, Genova, Italy). BV-2 cells were cultured in RPMI-1640 medium (Gibco Invitrogen, Paisley, Scotland, UK) supplemented with 10% FBS and 0.1% penicillin-streptomycin (both from Gibco Invitrogen). Cells were maintained at 37° C. in a 5% CO2 humidified atmosphere. BV-2 microglial cells were seeded at a density of 5×10^4 cells/mL. The following day, cells were treated with the compound of formula (I), the compound of formula (II) or the combination of both compounds, 30 minutes before stimulation with LPS 100 ng/mL and gamma-interferon (IFNγ) 50 pg/mL (both from Sigma-Aldrich, St. Louis, Mo., USA). Control wells contained the same final concentration of vehicle as the compound-containing wells. Culture supernatants were collected 24 h after LPS/IFNγ stimulation and stored at −20° C. until assayed for nitrites analysis.
Nitrite levels, direct indicators of NO production, were quantified by the Griess reaction. Briefly, 50 μL of culture medium was mixed in a 96-well plate with 25 μL of Griess reagent A (sulfanilamide, Sigma-Aldrich) and 25 μL of reagent B (N-1-naphthyl ethylene-diamine, Sigma-Aldrich). After color development (10 min at 23 to 25° C.), samples were measured at 540 nm on a microplate reader (BioTek ELX800, BioTek Instruments Inc., Vermont, USA). Nitrite concentration was determined from a sodium nitrite standard curve. Values of at least three independent wells from three experiments were calculated.
The compound of formula (I) was oleanolic acid (4.44 mg/L), the compound of formula (II) was verbascoside (3.12 mg/L), and the combination of the compound of formula (I) and the compound of formula (II) comprised oleanolic acid (4.44 mg/L) and verbascoside (3.12 mg/L). Stock solutions of the compounds (50 mM) were prepared in dimethyl sulfoxide (DMSO, Sigma-Aldrich). Solutions for cell treatment were prepared by diluting stock solutions in culture media immediately before being added to the cells (DMSO concentration: 0.5%). Controls contained the same final concentration of vehicle as the compound-containing wells. Three independent experiments were carried out.
The procedures for this assay were as described above in Example 2, wherein the compound of formula (I) was maslinic acid (13.20 mg/L), the compound of formula (II) was verbascoside (3.12 mg/L), and the and the combination of the compound of formula (I) and the compound of formula (II) comprised maslinic acid (13.20 mg/L) and verbascoside (3.12 mg/L). Stock solutions of the compounds (50 mM) were prepared in dimethyl sulfoxide (DMSO, Sigma-Aldrich). Solutions for cell treatment were prepared by diluting stock solutions in culture media immediately before being added to the cells (DMSO concentration: 0.5%). Controls contained the same final concentration of vehicle as the compound-containing wells. Three independent experiments were performed.

[1] = oleanolic acid 4.44 mg/L alone, listed as OLA

OCCc1ccc(O)c(O)c1 [hydroxytyrosol, 2-(3,4-dihydroxyphenyl)ethanol]
NSC34 survival increase (vs. H2O2) (NSC34 motor neurons; hydroxytyrosol 1.54 mg/L alone): 21.67% | NSC34 survival increase (vs. H2O2) (NSC34 motor neurons; hydroxytyrosol 1.54 mg/L alone, listed as HST): 21.67%

C[C@@H]1O[C@@H](O[C@@H]2[C@@H](O)[C@H](OCCc3ccc(O)c(O)c3)O[C@H](CO)[C@H]2OC(=O)/C=C/c2ccc(O)c(O)c2)[C@H](O)[C@H](O)[C@H]1O [verbascoside]
BV2 NO reduction (vs. LPS + IFNγ) (BV2 microglia; verbascoside 3.12 mg/L alone): 14.67% | BV2 NO reduction (vs. LPS + IFNγ) (BV2 microglia; verbascoside 3.12 mg/L alone, listed as VRB): 14.67%

CC1(C)CC[C@]2(C(=O)O)CC[C@]3(C)C(=CC[C@@H]4[C@@]5(C)CC[C@H](O)C(C)(C)[C@@H]5CC[C@]43C)[C@@H]2C1 [oleanolic acid]
NSC34 survival increase (vs. H2O2) (NSC34 motor neurons; oleanolic acid 4.44 mg/L alone): 5.33% | NSC34 survival increase (vs. H2O2) (NSC34 motor neurons; [1]): 5.33% | BV2 NO reduction (vs. LPS + IFNγ) (BV2 microglia; oleanolic acid 4.44 mg/L alone): 17.33% | BV2 NO reduction (vs. LPS + IFNγ) (BV2 microglia; [1]): 17.33%

CC1(C)CC[C@]2(C(=O)O)CC[C@]3(C)C(=CC[C@@H]4[C@@]5(C)C[C@@H](O)[C@H](O)C(C)(C)[C@@H]5CC[C@]43C)[C@@H]2C1 [maslinic acid]
BV2 NO reduction (vs. LPS + IFNγ) (BV2 microglia; maslinic acid 13.20 mg/L alone): 18.67% | BV2 NO reduction (vs. LPS + IFNγ) (BV2 microglia; maslinic acid 13.20 mg/L alone, listed as MSA): 18.67%
